From patent US20240299304A1, “A METHOD FOR THE PRODUCTION OF GASTRORETENTIVE COMPACT MATRICES FOR THE CONTROLLED RELEASE OF ACTIVE SUBSTANCES AND COMPACT MATRICES THUS OBTAINED” (UNIVERSITA DEGLI STUDI DI GENOVA, priority 2021, published 2024)

Experiment: pH in water of pH regulators before and after heat treatment
Assay type: physicochemical
Conditions: for pH in water after heat treatment: after heat treatment at 150° C. for 15 min

SMILES: O=C([O-])[O-].[Na+].[Na+] [Na2CO3, sodium carbonate]
- pH in water after heat treatment: 10
- pH in water before heat treatment: 10

SMILES: O.O.O.O.O.O.O.O.O.O.O.O.O=P([O-])([O-])[O-].[Na+].[Na+].[Na+] [Na3PO4 12H2O]
- pH in water after heat treatment: 10
- pH in water before heat treatment: 10

SMILES: O=P([O-])([O-])O.[Na+].[Na+] [Na2HPO4 2H2O, disodium hydrogen phosphate]
- pH in water after heat treatment: 6
- pH in water before heat treatment: 6

SMILES: O=C([O-])O.[Na+] [NaHCO3, sodium bicarbonate]
- pH in water after heat treatment: 10
- pH in water before heat treatment: 7

SMILES: O=C([O-])[O-].[Mg+2] [MgCO3]
- pH in water after heat treatment: 7
- pH in water before heat treatment: 6
